Assay results: ChEMBL document CHEMBL4049381 (Medchemcomm, 2016)

Legend:
[1] = molecular target: T1, Solute carrier organic anion transporter family member 2B1 (Homo sapiens, UniProt O94956, H579Q); assay: Drug uptake assessed as human OATP2B1 H579Q mutant expressed in Xenopus laevis oocyte mediated drug accumulation at 50 uM after 15 mins by LC-MS/MS analysis relative to wild type protein; format: ADME; settings: 0.25 h
[2] = molecular target: T2, Solute carrier organic anion transporter family member 2B1 (Homo sapiens, UniProt O94956, H618Q); assay: Drug uptake assessed as human OATP2B1 H618Q mutant expressed in Xenopus laevis oocyte mediated drug accumulation at 0.005 uM after 15 mins by LC-MS/MS analysis relative to wild type protein; format: ADME; settings: 0.25 h
T2 sequence (O94956 whole entry T392I/H618Q): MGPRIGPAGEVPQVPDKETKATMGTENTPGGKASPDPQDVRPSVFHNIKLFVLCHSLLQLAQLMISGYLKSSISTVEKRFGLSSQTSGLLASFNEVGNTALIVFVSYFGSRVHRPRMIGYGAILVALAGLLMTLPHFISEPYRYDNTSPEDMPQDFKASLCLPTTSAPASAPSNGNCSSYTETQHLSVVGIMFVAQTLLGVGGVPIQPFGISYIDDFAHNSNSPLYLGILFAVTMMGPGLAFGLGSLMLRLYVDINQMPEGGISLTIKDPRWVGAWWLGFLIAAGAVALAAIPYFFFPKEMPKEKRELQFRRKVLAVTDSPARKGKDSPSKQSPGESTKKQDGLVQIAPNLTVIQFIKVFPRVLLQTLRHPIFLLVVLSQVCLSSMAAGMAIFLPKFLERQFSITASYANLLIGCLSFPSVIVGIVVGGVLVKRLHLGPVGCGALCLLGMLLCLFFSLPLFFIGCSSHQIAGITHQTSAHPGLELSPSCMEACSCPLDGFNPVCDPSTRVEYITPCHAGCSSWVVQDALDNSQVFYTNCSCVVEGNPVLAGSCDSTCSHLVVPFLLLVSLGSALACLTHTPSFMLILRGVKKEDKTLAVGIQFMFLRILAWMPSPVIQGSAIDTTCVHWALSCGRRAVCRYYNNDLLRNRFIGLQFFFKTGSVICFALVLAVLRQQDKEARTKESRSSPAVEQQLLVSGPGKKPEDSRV

[3] = molecular target: T3, Solute carrier organic anion transporter family member 2B1 (Homo sapiens, UniProt O94956); assay: Drug uptake assessed as human OATP2B1 expressed in Xenopus laevis oocyte mediated drug accumulation per oocyte at 0.005 uM after 15 mins by LC-MS/MS analysis; format: ADME; settings: 0.25 h
T3 sequence (O94956 whole entry): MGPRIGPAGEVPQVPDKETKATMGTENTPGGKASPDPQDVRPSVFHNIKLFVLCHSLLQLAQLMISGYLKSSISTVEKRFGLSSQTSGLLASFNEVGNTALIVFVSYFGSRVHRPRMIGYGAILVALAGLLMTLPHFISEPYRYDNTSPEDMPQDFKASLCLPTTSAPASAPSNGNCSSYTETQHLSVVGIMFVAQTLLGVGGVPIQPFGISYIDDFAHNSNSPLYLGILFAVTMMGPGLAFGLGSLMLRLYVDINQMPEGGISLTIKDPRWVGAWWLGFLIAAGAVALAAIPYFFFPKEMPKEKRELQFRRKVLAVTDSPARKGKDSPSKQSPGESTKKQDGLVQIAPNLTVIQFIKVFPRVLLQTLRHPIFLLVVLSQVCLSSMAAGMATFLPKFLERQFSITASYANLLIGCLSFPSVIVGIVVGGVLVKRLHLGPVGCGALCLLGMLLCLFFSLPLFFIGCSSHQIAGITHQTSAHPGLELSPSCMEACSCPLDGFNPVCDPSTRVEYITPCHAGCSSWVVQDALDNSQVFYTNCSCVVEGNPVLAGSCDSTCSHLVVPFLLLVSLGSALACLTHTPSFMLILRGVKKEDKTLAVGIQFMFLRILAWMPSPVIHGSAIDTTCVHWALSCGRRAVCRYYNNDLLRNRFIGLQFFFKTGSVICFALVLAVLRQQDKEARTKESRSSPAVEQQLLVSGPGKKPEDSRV

[4] = molecular target: T3, Solute carrier organic anion transporter family member 2B1; assay: Drug uptake assessed as human OATP2B1 expressed in Xenopus laevis oocyte mediated drug accumulation per oocyte at 50 uM after 15 mins by LC-MS/MS analysis; format: ADME; settings: 0.25 h
[5] = molecular target: Solute carrier organic anion transporter family member 2B1 (Homo sapiens, UniProt O94956, H219Q); assay: Drug uptake assessed as human OATP2B1 H219Q mutant expressed in Xenopus laevis oocyte mediated drug accumulation at 0.005 to 50 uM after 15 mins by LC-MS/MS analysis relative to wild type protein; format: ADME; settings: 0.25 h
Sequence of Solute carrier organic anion transporter family member 2B1 (Homo sapiens, UniProt O94956, H219Q) (O94956 whole entry H219Q/T392I): as the sequence (O94956 whole entry T392I/H618Q) above, with H219Q, Q618H counted along it

[6] = molecular target: T1, Solute carrier organic anion transporter family member 2B1; assay: Drug uptake assessed as human OATP2B1 H579Q mutant expressed in Xenopus laevis oocyte mediated drug accumulation at 0.005 to 50 uM after 15 mins by LC-MS/MS analysis relative to wild type protein; format: ADME; settings: 0.25 h
[7] = molecular target: T2, Solute carrier organic anion transporter family member 2B1; assay: Drug uptake assessed as human OATP2B1 H618Q mutant expressed in Xenopus laevis oocyte mediated drug accumulation at 0.005 to 50 uM after 15 mins by LC-MS/MS analysis relative to wild type protein; format: ADME; settings: 0.25 h
[8] = molecular target: Solute carrier organic anion transporter family member 2B1 (Homo sapiens, UniProt O94956, R607A); assay: Drug uptake assessed as human OATP2B1 R607A mutant expressed in Xenopus laevis oocyte mediated drug accumulation at 0.005 to 50 uM after 15 mins by LC-MS/MS analysis relative to wild type protein; format: ADME; settings: 0.25 h
Sequence of Solute carrier organic anion transporter family member 2B1 (Homo sapiens, UniProt O94956, R607A) (O94956 whole entry T392I/R607A): as the sequence (O94956 whole entry T392I/H618Q) above, with R607A, Q618H counted along it

[9] = test system: OATP2B1 H579Q/H618Q double mutant, high affinity site; assay: Substrate activity at human OATP2B1 H579Q/H618Q double mutant high affinity site expressed in Xenopus laevis oocytes assessed as Km for transporter-mediated drug accumulation after 15 mins by Eadie-Hofstee plot method; format: ADME, cell-based
[10] = molecular target: T3, Solute carrier organic anion transporter family member 2B1; assay: Substrate activity at human OATP2B1 high affinity site expressed in Xenopus laevis oocytes assessed as Vmax for transporter-mediated drug accumulation per 15 mins per oocyte by Eadie-Hofstee plot method; format: ADME, cell-based; settings: 0.25 h
[11] = molecular target: T2, Solute carrier organic anion transporter family member 2B1; assay: Substrate activity at human OATP2B1 H618Q mutant high affinity site expressed in Xenopus laevis oocytes assessed as Vmax for transporter-mediated drug accumulation per 15 mins per oocyte by Eadie-Hofstee plot method; format: ADME, cell-based; settings: 0.25 h
[12] = Substrate activity at human OATP2B1 H579Q/H618Q double mutant high affinity site expressed in Xenopus laevis oocytes assessed as Vmax for transporter-mediated drug accumulation per 15 mins per oocyte by Eadie-Hofstee plot method; format: ADME, cell-based; settings: 0.25 h
[13] = molecular target: T3, Solute carrier organic anion transporter family member 2B1; assay: Ratio of Vmax to Km for human OATP2B1 high affinity site expressed in Xenopus laevis oocytes assessed as transporter-mediated drug uptake per 15 mins per oocyte after 15 mins by Eadie-Hofstee plot method; format: ADME, cell-based; settings: 0.25 h
[14] = molecular target: T2, Solute carrier organic anion transporter family member 2B1; assay: Ratio of Vmax to Km for human OATP2B1 H618Q mutant high affinity site expressed in Xenopus laevis oocytes assessed as transporter-mediated drug uptake per 15 mins per oocyte after 15 mins by Eadie-Hofstee plot method; format: ADME, cell-based; settings: 0.25 h
[15] = Ratio of Vmax to Km for human OATP2B1 H579Q/H618Q double mutant high affinity site expressed in Xenopus laevis oocytes assessed as transporter-mediated drug uptake per 15 mins per oocyte after 15 mins by Eadie-Hofstee plot method; format: ADME, cell-based; settings: 0.25 h
[16] = test system: OATP2B1 H618Q/H579Q double mutant, low affinity site; assay: Substrate activity at human OATP2B1 H618Q/H579Q double mutant low affinity site expressed in Xenopus laevis oocytes assessed as Km for transporter-mediated drug accumulation after 15 mins by Eadie-Hofstee plot method; format: ADME, cell-based
[17] = molecular target: T3, Solute carrier organic anion transporter family member 2B1; assay: Substrate activity at human OATP2B1 low affinity site expressed in Xenopus laevis oocytes assessed as Vmax for transporter-mediated drug accumulation per 15 mins per oocyte by Eadie-Hofstee plot method; format: ADME, cell-based; settings: 0.25 h
[18] = molecular target: T2, Solute carrier organic anion transporter family member 2B1; assay: Substrate activity at human OATP2B1 H618Q mutant low affinity site expressed in Xenopus laevis oocytes assessed as Vmax for transporter-mediated drug accumulation per 15 mins per oocyte by Eadie-Hofstee plot method; format: ADME, cell-based; settings: 0.25 h
[19] = Substrate activity at human OATP2B1 H618Q/H579Q double mutant low affinity site expressed in Xenopus laevis oocytes assessed as Vmax for transporter-mediated drug accumulation per 15 mins per oocyte by Eadie-Hofstee plot method; format: ADME, cell-based; settings: 0.25 h
[20] = molecular target: T3, Solute carrier organic anion transporter family member 2B1; assay: Ratio of Vmax to Km for human OATP2B1 low affinity site expressed in Xenopus laevis oocytes assessed as transporter-mediated drug uptake per 15 mins per oocyte after 15 mins by Eadie-Hofstee plot method; format: ADME, cell-based; settings: 0.25 h
[21] = molecular target: T2, Solute carrier organic anion transporter family member 2B1; assay: Ratio of Vmax to Km for human OATP2B1 H618Q mutant low affinity site expressed in Xenopus laevis oocytes assessed as transporter-mediated drug uptake per 15 mins per oocyte after 15 mins by Eadie-Hofstee plot method; format: ADME, cell-based; settings: 0.25 h
[22] = Ratio of Vmax to Km for human OATP2B1 H618Q/H579Q double mutant low affinity site expressed in Xenopus laevis oocytes assessed as transporter-mediated drug uptake per 15 mins per oocyte after 15 mins by Eadie-Hofstee plot method; format: ADME, cell-based; settings: 0.25 h
[23] = molecular target: T3, Solute carrier organic anion transporter family member 2B1; assay: Drug uptake assessed as OATP2B1 high affinity site (unknown origin)-mediated drug uptake in presence of 1 mM pravastatin relative to control; format: ADME
[24] = molecular target: T3, Solute carrier organic anion transporter family member 2B1; assay: Drug uptake assessed as OATP2B1 high affinity site (unknown origin)-mediated drug uptake in presence of 1 mM sulfasalazine relative to control; format: ADME
[25] = molecular target: T3, Solute carrier organic anion transporter family member 2B1; assay: Drug uptake assessed as OATP2B1 low affinity site (unknown origin)-mediated drug uptake in presence of 1 mM pravastatin relative to control; format: ADME
[26] = molecular target: T3, Solute carrier organic anion transporter family member 2B1; assay: Drug uptake assessed as OATP2B1 low affinity site (unknown origin)-mediated drug uptake in presence of 1 mM sulfasalazine relative to control; format: ADME

T1 sequence (O94956 whole entry T392I/H579Q): as the sequence (O94956 whole entry T392I/H618Q) above, with H579Q, Q618H counted along it

C[C@]12CC[C@@H]3c4ccc(OS(=O)(=O)O)cc4CC[C@H]3[C@@H]1CCC2=O [ESTRONE SULFURIC ACID]
Drug uptake [1]: 14%
Drug uptake [2]: 17.8%
Drug uptake [3]: 2.39 µL
Drug uptake [4]: 0.198 µL
fold change (FC) [5]: < 2
fold change (FC) [6]: < 2
fold change (FC) [7]: < 2
fold change (FC) [8]: < 2
Km at 0.25 h [9]: 0.808 µM
Vmax [10]: 0.867 pmol
Vmax [11]: 0.0402 pmol
Vmax [12]: 0.38 pmol
Vmax/Km [13]: 1.87 µL
Vmax/Km [14]: 0.269 µL
Vmax/Km [15]: 0.471 µL
Km at 0.25 h [16]: 312 µM
Vmax [17]: 19.8 pmol
Vmax [18]: 60 pmol
Vmax [19]: 30.9 pmol
Vmax/Km [20]: 0.385 µL
Vmax/Km [21]: 0.659 µL
Vmax/Km [22]: 0.0987 µL
Drug uptake [23]: 21%
Drug uptake [24]: < 1%
Drug uptake [25]: 79%
Drug uptake [26]: < 1%
